# Laboratory results published in US5811427A (priority 1997, dated 1998).
# Legend:
# Pythium ultimum = test: Fungitoxicity against Pythium ultimum (inhibition of mycelial growth in liquid broth); assay type: cell-based; conditions: Globisporangium ultimum, 48 hours at 25° C. with shaking, asparagine-sucrose broth, read-out: % Inhibition of growth (increase in mycelial dry weight) as compared to controls
# Procedure: Compounds were tested for fungitoxicity against Pythium ultimum according to the procedures set forth below.
# Test compounds were dissolved in dimethylsulfoxide at 20 mg/ml and 0.1 ml was added to 19.9 ml of a liquid asparagine-sucrose broth, prepared according to the method described in Erwin, D. C., and Katznelson, K., Canadian Journal of Microbiology 7, 15 (1971), in 9 cm petri dishes to give a concentration of 100 ppm of the compound. Each plate was inoculated with a mycelial plug, 7 mm in diameter, taken from the growing edge of a culture of Pythium ultimum grown on potato dextrose agar. Two replicate plates were used for each treatment. After growth for 48 hours at 25° C. with shaking on a gyrotary shaker at 60 rpm, the increase in mycelial dry weight was determined. Fungitoxicity was recorded as percent inhibition of growth as compared to controls lacking the test compounds.
# Phytophthora infestans = test: whole plant or invertebrate; assay type: in vivo; conditions: in Solanum lycopersicum, 144 h, read-out: percent disease control, TLB
# [1] = tested on: Pseudoperonospora cubensis; conditions: in vivo
# Plasmopara viticola = assay type: in vivo; conditions: 7-8 days at 20° C.
Compound,inhibition at 100 ppm (Pythium ultimum) [%],pest or weed control at 750 ppm (Phytophthora infestans) [%],"percent disease control, CDM [1] [%]",pest or weed control at 375 ppm (Phytophthora infestans) [%],pest or weed control at 300 ppm (Phytophthora infestans) [%],"percent disease control, GDM (Plasmopara viticola) [%]"
CCC(C)(NC(=O)c1ccc2c(c1)CCO2)C(=O)C(Cl)Cl (stereo not shown) [Compound 7],94.5,,,,,
CCC(C)(NC(=O)c1ccc2[nH]ccc2c1)C(=O)C(Cl)Cl (stereo not shown) [Compound 5],66.9,0,50,,,
CCC(C)(NC(=O)c1ccc2ncoc2c1)C(=O)CCl (stereo not shown) [Compound 1],89.4,,,100,,
CCC(C)(NC(=O)c1ccc2nc(C)oc2c1)C(=O)C(Cl)Cl (stereo not shown) [Compound 14],94.5,,,,,
CCC(C)(NC(=O)c1ccc2[nH]ccc2c1)C(=O)CCl (stereo not shown) [Compound 6],88.6,,,,100,100
CCC(C)(NC(=O)c1ccc2c(c1)CCO2)C(=O)CCl (stereo not shown) [Compound 9],91.6,,,,100,0
CCC(C)(NC(=O)c1cc(Cl)c2ncoc2c1)C(=O)CCl (stereo not shown) [Compound 3],92,,,,100,100
CCC(C)(NC(=O)c1ccc2ocnc2c1)C(=O)CCl (stereo not shown) [Compound 8],93.7,,,,90,100
CCC(C)(NC(=O)c1ccc2ncsc2c1)C(=O)CCl (stereo not shown) [Compound 4],94.2,,50,,100,
CCC(C)(NC(=O)c1cc(Cl)c2nc(C)oc2c1)C(=O)CCl (stereo not shown) [Compound 12],90.7,,,,95,90
